Like-named read-outs stand apart in the source and are kept apart here.
Target: T1, hCCR4 (Chem5-hCCR4 cells) (Homo sapiens, UniProt P51679)
T1 sequence (P51679 1-360): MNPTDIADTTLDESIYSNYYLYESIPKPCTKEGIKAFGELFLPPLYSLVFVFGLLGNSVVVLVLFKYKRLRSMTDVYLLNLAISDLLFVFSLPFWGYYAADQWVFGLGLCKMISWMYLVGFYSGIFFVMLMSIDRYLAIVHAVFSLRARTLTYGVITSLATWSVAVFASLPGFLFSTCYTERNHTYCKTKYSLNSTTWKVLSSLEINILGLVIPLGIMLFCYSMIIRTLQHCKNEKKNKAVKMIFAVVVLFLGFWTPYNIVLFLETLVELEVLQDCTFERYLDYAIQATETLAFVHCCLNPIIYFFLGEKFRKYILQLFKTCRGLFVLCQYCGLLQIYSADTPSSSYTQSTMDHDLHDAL
Assay: Calcium flux assay (CCL22-stimulated, FLIPR Calcium 6 dye)
Format: cell-based
Settings: read-out: Potency (IC50)
Description: Calcium Flux Assay. Compounds were evaluated in a calcium flux assay substantially performed as follows. Chem5-hCCR4 cells (EMD Millipore, Hayward, CA; HTS009C) were cultured under standard conditions and frozen in aliquots of 10×10^6 cells/mL. The day prior to compound testing, a vial was rapidly thawed and pipetted into 20 mL media (DMEM+10% FBS+1% Pen-Strep+1% L-glutamine). Cells were harvested by centrifugation and re-suspended in fresh culture medium. 25 μL of cell suspension was seeded into 384-well plates (Corning, Tewksbury, MA; CellBind with black wall/clear bottom). The plates were centrifuged at 300 g for 10 seconds and incubated overnight at 37° C. and 5% CO2. The day of compound testing, media was removed from the plates and 25 μL serum free media was added to each well. Plates were returned to the incubator for 2 h. 25 μL assay buffer (Hank's balanced salt solution+20 mM HEPES pH 7.4) containing FLIPR Calcium 6 dye (Molecular Devices, Sunnyvale, CA; #R8191) and probenecid (2.5 mM) was added to each well and incubated at 37° C. and 5% CO2 for 2 h. Compounds in DMSO were added to the plates using an HP D300e digital dispenser, and all wells were normalized to contain 0.25 μL (0.5%) DMSO. Plates were incubated for 1 hour at 37° C. and 5% CO2. CCL22 (Peprotech; Rockyhill, NJ) was diluted in assay buffer containing 0.1% BSA to 7.5 nM (corresponding to 5×EC80 of 1.5 nM).
Assay plates and working solution of CCL22 were transferred to the FlexStation plate reader (Molecular Devices) at 37° C. for 5 min of equilibration. Fluorescence recordings at 485 excitation/525 emission were performed at 2.5 second intervals. At t=16 seconds, 12.5 μL of CCL22 solution was added to each well and reads continued for 30 seconds at 2.5 second intervals. The minimum fluorescence (Fmin) was calculated by averaging the reads prior to ligand addition and the change in fluorescence (ΔF) was calculated by subtracting the Fmin from the average of the reads following ligand addition. The response ΔF/Fmin was plotted as a function of the compound concentration and the IC50 values were determined by non-linear regression analysis using a 4-parameter fit in either PRISM software (GraphPad; La Jolla, CA) or Dotmatics Browser.

SMILES	IC50 (Table 5, CCL22 1.5 nM) [nM]	also measured
C[C@@H](Nc1cnc(C#N)c(N2CC([C@H]3CCCN(C4CC(C)(C(=O)O)C4)C3)C2)n1)c1ccc(Cl)cc1Cl (single isomer, unassigned) [Example 52]	–	IC50 (Table 4, CCL22 1.5 nM): > 500 nM
C[C@@H](Nc1nc(N2CC([C@H]3CCCN(C4CC(C)(C(=O)O)C4)C3)C2)ncc1C1CC1)c1ccc(Cl)cc1Cl (single isomer, unassigned) [Example 54]	< 100	–
Cc1cc2c(N[C@H](C)c3ccc(Cl)cc3Cl)nc(N3CC([C@H]4CCCN(C5CC(C)(C(=O)O)C5)C4)C3)nc2s1 (single isomer, unassigned) [Example 67, trifluoroacetic acid]	< 100	–
C[C@@H](Nc1nc(N2CC([C@H]3CCCN(C4CC(C)(C(=O)O)C4)C3)C2)ncc1CO)c1ccc(Cl)cc1Cl (single isomer, unassigned) [Example 68]	< 100	–
C[C@@H](Nc1nc(N2CC([C@H]3CCCN(C4CC(C)(C(=O)O)C4)C3)C2)nc2nc[nH]c12)c1ccc(Cl)cc1Cl (single isomer, unassigned) [Example 69]	100 to 500	–
C[C@@H](Nc1nc(N2CC([C@H]3CCCN(C4CC(C)(C(=O)O)C4)C3)C2)nc2scnc12)c1ccc(Cl)cc1Cl (single isomer, unassigned) [Example 71, trifluoroacetic acid]	< 100	–
C[C@@H](Nc1nc(N2CC([C@H]3CCCN(C4CC(C)(C(=O)O)C4)C3)C2)nc2cc[nH]c12)c1ccc(Cl)cc1Cl (single isomer, unassigned) [Example 72, trifluoroacetic acid]	< 100	–
Cc1csc2nc(N3CC([C@H]4CCCN(C5CC(C)(C(=O)O)C5)C4)C3)nc(N[C@H](C)c3ccc(Cl)cc3Cl)c12 (single isomer, unassigned) [Example 74, trifluoroacetic acid]	< 100	–
C[C@@H](Nc1nc(N2CC([C@H]3CCCN(C4CC(C)(C(=O)O)C4)C3)C2)nc2[nH]ccc12)c1ccc(Cl)cc1Cl (single isomer, unassigned) [Example 75, trifluoroacetic acid]	< 100	–
CCc1nc(N2CC([C@H]3CCCN(C4CC(C)(C(=O)O)C4)C3)C2)nc(N[C@H](C)c2ccc(Cl)cc2Cl)c1Cl (single isomer, unassigned) [Example 77]	< 100	–
CC(=O)c1cnc(N2CC([C@H]3CCCN(C4CC(C)(C(=O)O)C4)C3)C2)nc1N[C@H](C)c1ccc(Cl)cc1Cl (single isomer, unassigned) [Example 78]	< 100	–
C[C@@H](Nc1cc(C2CC2)nc(N2CC([C@H]3CCCN(C4CC(C)(C(=O)O)C4)C3)C2)n1)c1ccc(Cl)cc1Cl (single isomer, unassigned) [Example 80]	< 100	–
C[C@@H](Nc1nc(N2CC([C@H]3CCCN(C4CC(C)(C(=O)O)C4)C3)C2)nc2ccn(C)c12)c1ccc(Cl)cc1Cl (single isomer, unassigned) [Example 81, trifluoroacetic acid]	< 100	–
COc1cc(N[C@H](C)c2ccc(Cl)cc2Cl)nc(N2CC([C@H]3CCCN(C4CC(C)(C(=O)O)C4)C3)C2)n1 (single isomer, unassigned) [Example 82]	> 500	–
COc1cnc(N2CC([C@H]3CCCN(C4CC(C)(C(=O)O)C4)C3)C2)nc1N[C@H](C)c1ccc(Cl)cc1Cl (single isomer, unassigned) [Example 83]	< 100	–
C[C@@H](Nc1nc(N2CC([C@H]3CCCN(C4CC(C)(C(=O)O)C4)C3)C2)nc(CO)c1Cl)c1ccc(Cl)cc1Cl (single isomer, unassigned) [Example 86]	< 100	–
C[C@@H](Nc1nc(N2CC([C@H]3CCCN(C4CC(C)(C(=O)O)C4)C3)C2)nc(CF)c1Cl)c1ccc(Cl)cc1Cl (single isomer, unassigned) [Example 89]	< 100	–
Cc1cc(N[C@H](C)c2ccc(Cl)cc2Cl)nc(N2CC([C@H]3CCCN(C4CC(C)(C(=O)O)C4)C3)C2)n1 (single isomer, unassigned) [Example 90]	< 100	–
Cc1nc(N2CC([C@H]3CCCN(C4CC(C)(C(=O)O)C4)C3)C2)nc(N[C@H](C)c2ccc(Cl)cc2Cl)c1F (single isomer, unassigned) [Example 91, trifluoroacetic acid]	< 100	–
CCc1cc(N[C@H](C)c2ccc(Cl)cc2Cl)nc(N2CC([C@H]3CCCN(C4CC(C)(C(=O)O)C4)C3)C2)n1 (single isomer, unassigned) [Example 92]	< 100	–
C[C@@H](Nc1nc(N2CC([C@H]3CCCN(CCO)C3)C2)cnc1C#N)c1ccc(Cl)cc1Cl [Example 1, 3-(((R)-1-(2,4-dichlorophenyl)ethyl)amino)-5-(3-((R)-1-(2-hydroxyethyl)piperidin-3-yl)azetidin-1-yl)pyrazine-2-carbonitrile]	–	IC50 (Table 3, CCL22 1.5 nM): < 100 nM
C[C@@H](Nc1cncc(N2CC([C@H]3CCCN(CCO)C3)C2)n1)c1ccc(Cl)cc1Cl [Example 2, 2-((R)-3-(1-(6-(((R)-1-(2,4-dichlorophenyl)ethyl)amino)pyrazin-2-yl)azetidin-3-yl)piperidin-1-yl)ethan-1-ol]	–	IC50 (Table 3, CCL22 1.5 nM): 100 to 500 nM
Cc1ncc(N2CC([C@H]3CCCN(CCO)C3)C2)nc1N[C@H](C)c1ccc(Cl)cc1Cl [Example 3, 2-((R)-3-(1-(6-(((R)-1-(2,4-dichlorophenyl)ethyl)amino)-5-methylpyrazin-2-yl)azetidin-3-yl)piperidin-1-yl)ethan-1-ol]	–	IC50 (Table 3, CCL22 1.5 nM): > 500 nM
C[C@@H](Nc1cnc(C#N)c(N2CC([C@H]3CCCN([C@H]4C[C@@H](C(=O)O)C4)C3)C2)n1)c1ccc(Cl)cc1Cl [Example 4, (1S,3s)-3-((R)-3-(1-(3-cyano-6-(((R)-1-(2,4-dichlorophenyl)ethyl)amino)pyrazin-2-yl)azetidin-3-yl)piperidin-1-yl)cyclobutane-1-carboxylic acid]	–	IC50 (Table 3, CCL22 1.5 nM): > 500 nM
C[C@@H](Nc1nc(N2CC([C@H]3CCCN([C@H]4C[C@@H](C(=O)O)C4)C3)C2)cnc1C#N)c1ccc(Cl)cc1Cl [Example 5, (1S,3s)-3-((R)-3-(1-(5-cyano-6-(((R)-1-(2,4-dichlorophenyl)ethyl)amino)pyrazin-2-yl)azetidin-3-yl)piperidin-1-yl)cyclobutane-1-carboxylic acid]	–	IC50 (Table 3, CCL22 1.5 nM): 100 to 500 nM
C[C@@H](Nc1nc(N2CC([C@H]3CCCN(C4CCCC4C(=O)O)C3)C2)cnc1C#N)c1ccc(Cl)cc1Cl (stereo partly drawn) [Example 6, 2-((R)-3-(1-(5-cyano-6-(((R)-1-(2,4-dichlorophenyl)ethyl)amino)pyrazin-2-yl)azetidin-3-yl)piperidin-1-yl)cyclopentane-1-carboxylic acid]	–	IC50 (Table 3, CCL22 1.5 nM): 100 to 500 nM
C[C@@H](Nc1nc(N2CC([C@H]3CCCN(CCO)C3)C2)cnc1C#N)c1ccc(S(C)(=O)=O)cc1Cl [Example 7, 3-(((R)-1-(2-chloro-4-(methylsulfonyl)phenyl)ethyl)amino)-5-(3-((R)-1-(2-hydroxyethyl)piperidin-3-yl)azetidin-1-yl)pyrazine-2-carbonitrile]	–	IC50 (Table 3, CCL22 1.5 nM): > 500 nM
C[C@@H](Nc1nc(N2CC([C@H]3CCCN([C@H]4C[C@@H](C(=O)O)C4)C3)C2)ncc1Cl)c1ccc(Cl)cc1Cl [Example 8, (1S,3s)-3-((R)-3-(1-(5-chloro-4-(((R)-1-(2,4-dichlorophenyl)ethyl)amino)pyrimidin-2-yl)azetidin-3-yl)piperidin-1-yl)cyclobutane-1-carboxylic acid]	–	IC50 (Table 3, CCL22 1.5 nM): < 100 nM

From patent publication US12098139B2, “Chemokine receptor modulators and uses thereof” (RAPT Therapeutics, Inc., priority 2018, dated 2024)
